For experiment [1], the system named is recombinant HBV encoding the mutant rtS85A. Kind of experiment: Antiviral testing: HBV replicative intermediates by Southern blot in Huh7 cells transfected with HBV plasmid encoding rtS85A. The following applies: for pIC50: Hepatitis B virus, Huh-7. It counts as cell-based, hepatitis B virus. The source says: (§1) The plasmid containing 1.3×HBV genome in the vector pBlueBac4.5 was used as the infectious HBV clone. This clone already had the precore mutation at G1896A. The point mutation were created by site directed mutagenesis using the commercial kits according to the manufacturers specifications (QuikChange, Stratagene). A HBV recombinant encoding the reverse transcriptase mutations rtS85A was created. The nucleotide sequence of the plasmid and the point mutations generated by site directed mutagenesis were confirmed by sequencing using the ABI Prism Big Dye Terminator Cycle Sequencing Ready Reaction Kit according to the manufacturer's specifications (Perkin Elmer, Cetus Norwalk, Conn.).
(§2) Huh7 cells were seeded at approximately 20-40% confluency and then were grown for 16-24 hours before transfection. Plasmid DNA containing HBV encoding specific mutations was transfected using Fugene according to the manufacturers protocols.
ADV and LMV were resuspended in sterile water, aliquoted, and frozen at −20° C. to avoid repeated freezing and thawing of the drug. Medium containing ADV or LMV were prepared daily as needed. In experiments in which ADV or LMV treatment was initiated […] transfection, Huh7 cells were exposed to the indicated concentration of ADV or LMV immediately after transfection with the HBV plasmid.
HBV core particles were isolated from the cytoplasmic fraction of Huh7 cells lysis buffer which includes 0.5% w/v NP-40. Cytoplasmic extracts were treated with DNAse, adjusted to 10 mmol/l […] and unprotected DNA was removed by an incubation to 500 µg/ml Proteinase K for 1.5 hours at 37° C. HBV DNA in the samples were then extracted using commercial DNA extraction kits such as Qiagen (DNA extraction) or in-house methods using sequential phenol and chloroform extractions, and the nucleic acids were recovered by ethanol precipitation. […] After southern blot analysis a BioRad Phosphoimager and the Quantity One Analysis software (BioRad, Hecules Calif.) was used to analyze suitable exposures of Southern blots. […]

The subject of experiment [2] is HBV precore mutant (G1896A). Kind of experiment: Antiviral testing: HBV replicative intermediates by Southern blot in Huh7 cells transfected with HBV plasmid (precore mutant). The following applies: Hepatitis B virus, Huh-7. Format: cell-based.
Excerpt: as §1, §2
ADV and LMV were resuspended in sterile water, aliquoted, and frozen at −20° C. to avoid repeated freezing and thawing of the drug. […]
HBV core particles were isolated from the cytoplasmic fraction of Huh7 cells lysis buffer which includes 0.5% w/v NP-40. […] After southern blot analysis a BioRad Phosphoimager and the Quantity One Analysis software (BioRad, Hecules Calif.) was used to analyze suitable exposures of Southern blots. […]

By pIC50 is commonly meant −log10 of the IC50, conventionally taken in molar units.

pIC50: −log10 of the molar value.

Turning to `Nc1ncnc2c1ncn2CCOCP(=O)(O)O` [ADV, adefovir], the values for the negative-log IC50 (pIC50) in experiment [1] and in experiment [2] were 5.00 to 5.30 and 6.37, respectively. Further, the “sensitivity of recombinant HBV to drug” value in experiment [1] (recombinant HBV encoding the mutant rtS85A) is reported as “reduced sensitivity”.

Take `Nc1ccn([C@@H]2CS[C@H](CO)O2)c(=O)n1` [LMV, (−)-β-2′-deoxy-3′-thiacytidine]: the negative-log IC50 (pIC50) in experiment [1] was 8.00; in experiment [2], 8.30.

These data come from patent publication US20060190186A1, “Viral polymerase and modulation thereof” (Melbourne Health, priority 2003, published 2006).
